Data reported in US12037324B2, “Biarylmethyl heterocycles” (Université de Montréal, priority 2016, dated 2024).

Columns and labels:
Type in all cases: cell-based
AGTR1 = molecular target: T1, AGTR1 (Homo sapiens, UniProt P30556); experiment: DiscoveRx β-arrestin2 recruitment assay (enzyme complementation, Pathunter CHO-K1 AGTR1 β-arrestin cell line); conditions: DiscoveRx β-arrestin2 recruitment
T1 construct: host or cells: Pathunter CHO-K1 AGTR1 β-arrestin cell line (CHO-K1)
T1 sequence (P30556 1-359): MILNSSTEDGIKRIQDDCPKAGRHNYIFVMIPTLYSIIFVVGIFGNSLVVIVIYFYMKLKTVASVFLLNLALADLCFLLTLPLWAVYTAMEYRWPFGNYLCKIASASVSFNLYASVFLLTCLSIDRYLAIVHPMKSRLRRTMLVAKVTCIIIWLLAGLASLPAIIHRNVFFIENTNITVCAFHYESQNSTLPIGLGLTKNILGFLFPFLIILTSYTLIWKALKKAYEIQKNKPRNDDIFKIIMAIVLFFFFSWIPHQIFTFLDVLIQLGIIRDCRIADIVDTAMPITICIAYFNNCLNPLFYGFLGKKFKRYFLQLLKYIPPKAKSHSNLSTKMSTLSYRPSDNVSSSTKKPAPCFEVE
Summary of the method: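 Chemiluminescent enzyme-complementation read-out of β-arrestin2 recruitment to AGTR1 in engineered CHO-K1 cells after 90 min compound exposure at 37° C. Values are 4-parameter logistic EC50s in agonist mode, IC50s in antagonist mode, with efficacy relative to the maximal All response.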

hAT1R [1] = molecular target: T2, hAT1R (Homo sapiens, UniProt P30556); experiment: BRET β-arrestin2 biosensor assay, higher receptor expression (hAT1R 5 ng/well), HEK293 cells; conditions: for EC50: High AT1R Expression
T2 sequence (P30556 1-359): T1 sequence (P30556 1-359)

hAT1R [2] = molecular target: T2, hAT1R; experiment: BRET Gq biosensor assay, agonist response, HEK293 cells; conditions: section of the 42nd table directly before the BRET P63 section
Summary of the method: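 Agonist EC50 derived from a 4-parameter fit of BRET2 ratio (GFP 515 nm/Rluc 410 nm), scaled between unstimulated control and maximal AngII response. Readings taken 5 min after compound addition at room temperature, with 2 μM coelenterazine, in HEK293 cells expressing hAT1R, Gαq-Rluc, Gβ1 and GFP-Gγ1 (transfected two days earlier).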

Structure (SMILES)	EC50 (AGTR1) [nM]	DiscoveRx β-arrestin2 Ymax (%) (AGTR1; maximal response)	BRET β-Arrestin2 High AT1R Expression Ymax (%) (hAT1R [1])	EC50 (hAT1R [1]) [nM]	EC50 (hAT1R [2]) [nM]	DiscoveRx β-arrestin2 Ymax (%) (AGTR1)
CCCCc1nc(Cl)c(C(=O)N(C)C)n1Cc1ccc(-c2cc(-c3ccccc3)ccc2-c2nn[nH]n2)cc1 [Example 381, 1-((6′-(2H-tetrazol-5-yl)-[1,1′:3′,1″-terphenyl]-4-yl)methyl)-2-butyl-4-chloro-N,N-dimethyl-1H-imidazole-5-carboxamide]	344	37.4	73.9	828	2110	–
CCCCC(=O)N(Cc1ccc(-c2cc(-c3ccccc3)ccc2-c2nn[nH]n2)cc1)C1(C(=O)O)CCC1 [Example 270]	6550	28.6	74.3	12900	4680	–
CCCCC(=O)N(Cc1ccc(-c2cc(-c3ccccc3)ccc2-c2nn[nH]n2)cc1)C1(C(=O)O)CCCCCC1 [Example 277]	36.1	46.0	79.4	28.9	> 100000	–
CCCCc1ncc(C(=O)Nc2nc(C)cs2)n1Cc1ccc(-c2cc(-c3ccccc3)ccc2-c2nn[nH]n2)cc1 [Example 349]	69.2	24.8	67.6	117	174	–
CCCCc1ncc(C(=O)NCCOC(C)C)n1Cc1ccc(-c2cc(-c3ccccc3)ccc2-c2nn[nH]n2)cc1 [Example 367]	5.7	35.9	63.3	17.6	59.1	–
CCCCC(=O)N(Cc1ccc(-c2cc(-c3ccccc3)ccc2-c2noc(=O)[nH]2)cc1)C1(C(=O)OC)CCCCC1 [Example 280, Methyl 1-(N-((6′-(5-oxo-4,5-dihydro-1,2,4-oxadiazol-3-yl)-[1,1′:3′,1″-terphenyl]-4-yl)methyl)pentanamido)cyclohexanecarboxylate]	904	35.2	75.7	699	2870	–
CCCCc1ncc(C(=O)N(C)C)n1Cc1ccc(-c2cc(-c3ccccc3)ccc2-c2nn[nH]n2)cc1 [Example 383, 1-((6′-(2H-tetrazol-5-yl)-[1,1′:3′,1″-terphenyl]-4-yl)methyl)-2-butyl-N,N-dimethyl-1H-imidazole-5-carboxamide]	70.4	22.8	66.3	309	7740	–
CCOc1nc2cccc(C(=O)O)c2n1Cc1ccc(-c2cc(-c3cccnc3OC)ccc2C(=O)O)cc1 [Example 318]	47.5	54.6	93.9	132	552	–
CCCCC(=O)N(Cc1ccc(-c2cc(-c3ccccc3)ccc2-c2nn[nH]n2)cc1)C1(C(=O)O)CCCCC1 [Example 272]	16.5	43.5	84.0	15.2	> 100000	–
CCCCc1nc(Cl)c(C(=O)O)n1Cc1ccc(-c2cc(-c3ccc(C(=O)N(C)C)cc3)ccc2-c2noc(=O)[nH]2)cc1 [Example 409]	59.3	50.6	88.7	73.2	136	–
CCCCC(=O)N(Cc1ccc(-c2cc(Oc3ccccc3)ccc2-c2nn[nH]n2)cc1)[C@H](C(=O)O)C(C)C [Example 435, (S)-3-Methyl-2-(N-((5′-phenoxy-2′-(2H-tetrazol-5-yl)-[1,1′-biphenyl]-4-yl)methyl)pentanamido)butanoic acid]	1410	–	12.3	305	> 100000	19.1
CCCCc1ncc(C(=O)NCC2CC2)n1Cc1ccc(-c2cc(-c3ccccc3)ccc2-c2nn[nH]n2)cc1 [Example 365]	46.2	39.7	82.7	35.9	40.8	–
CCCCc1ncc(C(=O)Nc2ccncc2)n1Cc1ccc(-c2cc(-c3ccccc3)ccc2-c2nn[nH]n2)cc1 [Example 353]	55	22.4	49.1	65.5	566	–
CCCCC(=O)N(Cc1ccc(-c2cc(Oc3cccnc3)ccc2-c2nn[nH]n2)cc1)[C@H](C(=O)O)C(C)C [Example 436]	993	–	58.0	13600	> 100000	31.2
CC(C)CCC(=O)N(Cc1ccc(-c2cc(-c3ccccc3)ccc2-c2nn[nH]n2)nc1)[C@H](C(=O)O)C(C)C [Example 433]	59.1	–	92.4	115	581	49.6
CCCCC(=O)N(Cc1ccc(-c2cc(-c3ccccc3)ccc2-c2nn[nH]n2)cn1)[C@H](C(=O)O)C(C)C [Example 431]	194	–	92.7	1590	910	26.0
CCCCc1ncc(C(=O)N2CCC2)n1Cc1ccc(-c2cc(-c3ccccc3)ccc2-c2nn[nH]n2)cc1 [Example 370]	16.3	26.8	85.5	45.3	71.9	–
CCCCc1ncc(C(=O)NCC(C)(C)C)n1Cc1ccc(-c2cc(-c3ccccc3)ccc2-c2nn[nH]n2)cc1 [Example 373]	14.2	29.5	71.4	38.5	734	–
CCCCc1ncc(C(=O)NCCC)n1Cc1ccc(-c2cc(-c3ccccc3)ccc2-c2nn[nH]n2)cc1 [Example 372]	58.8	41.7	78.9	44.8	73.8	–
CCCCC(=O)N(Cc1ccc(-c2cc(-c3cc(F)cc(F)c3)ccc2-c2nn[nH]n2)cc1)C1(C(=O)O)CCCCC1 [Example 289]	48.2	51.1	85.2	13	546	–
CCCCC(=O)N(Cc1ccc(-c2cc(-c3cccnc3OC)ccc2-c2nn[nH]n2)cc1)[C@H](C(=O)O)C(C)C [Example 439]	108	–	35.8	117	386	26.4
CCCCc1ncc(C(=O)N[C@@H](CC)C2CC2)n1Cc1ccc(-c2cc(-c3ccccc3)ccc2-c2nn[nH]n2)cc1 [Example 369]	174	30.9	73.8	73.3	173	–
CCCCc1nc(Cl)c(C(=O)O)n1Cc1ccc(-c2cc(-c3cccc(C(F)F)n3)ccc2-c2nn[nH]n2)cc1 [Example 423, 2-butyl-4-chloro-1-((5′-(6-(difluoromethyl)pyridin-2-yl)-2′-(2H-tetrazol-5-yl)-[1,1′-biphenyl]-4-yl)methyl)-1H-imidazole-5-carboxylic acid]	22.9	22.8	73.3	26	25.4	–
CCCCc1ncc(C(=O)NCc2ccccn2)n1Cc1ccc(-c2cc(-c3ccccc3)ccc2-c2nn[nH]n2)cc1 [Example 371]	5.7	40.8	94.4	11	> 1000	–
CCCCC(=O)N(Cc1ccc(-c2cc(-c3ccccc3)ccc2-c2noc(=O)[nH]2)nc1)[C@H](C(=O)O)C(C)C [Example 434, (S)-3-Methyl-2-(N-((6-(4-(5-oxo-4,5-dihydro-1,2,4-oxadiazol-3-yl)-[1,1′-biphenyl]-3-yl)pyridin-3-yl)methyl)pentanamido)butanoic acid 2,2,2-trifluoroacetate]	72	–	96.6	316	1280	40.9
CCCCc1ncc(C(=O)NCC(F)F)n1Cc1ccc(-c2cc(-c3ccccc3)ccc2-c2nn[nH]n2)cc1 [Example 364]	23.2	30.3	79.4	50.5	119	–
CCCCC(=O)N(Cc1ccc(-c2cc(-c3ccccc3)ccc2-c2nn[nH]n2)cn1)C1(C(=O)O)CCCCC1 [Example 274]	251	37.5	82.5	279	1490	–
